These are literature values, as cited in PMC8513935.

Data set [1] is described as follows: log P octanol/water from commercial databases, averaged (the ESI). The following applies: Octanol (wet), 25 C.
A short description of data set [2]: experimental, compiled by the authors from the literature (the ESI cites the sources).
Data set [3] is described as follows: derived by the authors as gas->solvent minus gas->water (a hypothetical dry solvent; the ESI), not a two-phase measurement.

Turning to `ClC(Cl)(Cl)Cl`, the log K of transfer, water to solvent in data set [1] was 2.83 log10 K; in data set [3] (1,2-Dichloroethane, 25 C), 3.1 log10 K; in data set [3] (2-Methylpropan-2-ol, 25 C), 2.8 log10 K; in data set [3] (Acetone, 25 C), 3.1 log10 K; in data set [3] (Acetonitrile, 25 C), 2.74 log10 K; in data set [3] (Butan-1-ol, 25 C), 2.9 log10 K. The log K of transfer, water to solvent in data set [3] (Butanone, 25 C) is 3.1 log10 K; in data set [3] (CCl4, 25 C), 3.3 log10 K; in data set [3] (Chloroform, 25 C) it was 3.31 log10 K; in data set [3] (Cyclohexanone, 25 C), 3.23 log10 K; in data set [3] (Di-n-butyl ether, 25 C), 3.11 log10 K; in data set [3] (Diethyl Ether, 25 C), 3.28 log10 K. Moreover, the log K of transfer, water to solvent in data set [3] (Ethanol, 25 C) is 2.81 log10 K; in data set [3] (Hexadecane, 25 C), 2.88 log10 K; in data set [3] (Hexan-1-ol, 25 C), 2.87 log10 K; in data set [3] (Hexane, 25 C), 3.09 log10 K; in data set [3] (Methanol, 25 C), 2.72 log10 K; in data set [3] (Octan-1-ol(dry), 25 C), 2.85 log10 K. Also, the log K of transfer, water to solvent in data set [3] (Propan-1-ol, 25 C) was 2.81 log10 K; in data set [3] (Propionitrile, 25 C), 2.92 log10 K; in data set [3] (Tetrahydrofuran, 25 C), 3.47 log10 K. For the same compound, the log K of transfer, gas to solvent in data set [2] (1,2-Dichloroethane, 25 C) is 3.04 log10 K; in data set [2] (2-Methylpropan-2-ol, 25 C) it was 2.74 log10 K; in data set [2] (Acetonitrile, 25 C), 2.68 log10 K; in data set [2] (Butan-1-ol, 25 C) it was 2.84 log10 K; in data set [2] (Butanone, 25 C), 3.04 log10 K; in data set [2] (CCl4, 25 C), 3.24 log10 K. Further, the log K of transfer, gas to solvent in data set [2] (Chloroform, 25 C) was 3.25 log10 K; in data set [2] (Cyclohexanone, 25 C) it was 3.17 log10 K; in data set [2] (Di-n-butyl ether, 25 C) it was 3.05 log10 K; in data set [2] (Diethyl Ether, 25 C), 3.22 log10 K; in data set [2] (Ethanol, 25 C), 2.75 log10 K; in data set [2] (Hexadecane, 25 C), 2.82 log10 K. The log K of transfer, gas to solvent in data set [2] (Hexan-1-ol, 25 C) is 2.81 log10 K; in data set [2] (Hexane, 25 C), 3.03 log10 K; in data set [2] (Methanol, 25 C), 2.66 log10 K; in data set [2] (Octan-1-ol, 25 C), 2.79 log10 K; in data set [2] (Propan-1-ol, 25 C) it was 2.75 log10 K; in data set [2] (Propanone, 25 C), 3.04 log10 K. For the same compound, the log K of transfer, gas to solvent is 2.86 log10 K in data set [2] (Propionitrile, 25 C); 3.41 log10 K in data set [2] (Tetrahydrofuran, 25 C); -0.06 log10 K in data set [2] (Water, 25 C).
With `CCC(C)O` (centres unmarked), the log K of transfer, water to solvent in data set [1] was 0.65 log10 K; in data set [3] (2-Methylpropan-2-ol, 25 C), 0.77 log10 K; in data set [3] (Butan-1-ol, 25 C), 0.64 log10 K; in data set [3] (Butan-2-ol, 25 C), 0.7 log10 K; in data set [3] (Butanone, 25 C) it was 0.41 log10 K; in data set [3] (CCl4, 25 C), -0.54 log10 K. The log K of transfer, water to solvent in data set [3] (Chlorobenzene, 25 C) is -0.27 log10 K; in data set [3] (Chloroform, 25 C), 0.3 log10 K; in data set [3] (Decan-1-ol, 25 C), 0.506 log10 K; in data set [3] (Hexadecane, 25 C) it was -1.05 log10 K; in data set [3] (Hexane, 25 C) it was -0.783 log10 K; in data set [3] (Octan-1-ol(dry), 25 C), 0.41 log10 K. Besides, the log K of transfer, gas to solvent is 4.16 log10 K in data set [2] (2-Methylpropan-2-ol, 25 C); 4.03 log10 K in data set [2] (Butan-1-ol, 25 C); 4.09 log10 K in data set [2] (Butan-2-ol, 25 C); 3.8 log10 K in data set [2] (Butanone, 25 C); 2.85 log10 K in data set [2] (CCl4, 25 C); 3.12 log10 K in data set [2] (Chlorobenzene, 25 C). The log K of transfer, gas to solvent in data set [2] (Chloroform, 25 C) is 3.69 log10 K; in data set [2] (Decan-1-ol, 25 C) it was 3.89 log10 K; in data set [2] (Hexadecane, 25 C) it was 2.34 log10 K; in data set [2] (Hexane, 25 C) it was 2.61 log10 K; in data set [2] (Octan-1-ol, 25 C), 3.8 log10 K; in data set [2] (Water, 25 C), 3.39 log10 K.
Take `C1CCOCC1`: the log K of transfer, water to solvent in data set [1] was 0.795 log10 K; in data set [3] (Chloroform, 25 C), 1.97 log10 K; in data set [3] (Cyclohexane, 25 C), 0.92 log10 K; in data set [3] (Hexadecane, 25 C) it was 0.707 log10 K; in data set [3] (Octan-1-ol(dry), 25 C), 0.91 log10 K. The log K of transfer, gas to solvent in data set [2] (Chloroform, 25 C) is 4.28 log10 K; in data set [2] (Cyclohexane, 25 C), 3.23 log10 K; in data set [2] (Hexadecane, 25 C) it was 3.02 log10 K; in data set [2] (Octan-1-ol, 25 C) it was 3.22 log10 K; in data set [2] (Water, 25 C) it was 2.31 log10 K.
As for `O=C1CCCCN1`, the log K of transfer, water to solvent in data set [1] is -0.465 log10 K; in data set [3] (Hexadecane, 25 C) it was -2.79 log10 K. The log K of transfer, gas to solvent is 4.18 log10 K in data set [2] (Hexadecane, 25 C) and 6.97 log10 K in data set [2] (Water, 25 C).
For `CCCCCCCCC`, the log K of transfer, water to solvent in data set [1] is 5.65 log10 K; in data set [3] (1,2-Dichloroethane, 25 C) it was 6.04 log10 K; in data set [3] (Acetone, 25 C), 5.81 log10 K; in data set [3] (Acetonitrile, 25 C), 5.15 log10 K; in data set [3] (Butanone, 25 C), 6.05 log10 K; in data set [3] (Butyronitrile, 25 C), 5.78 log10 K. Also, the log K of transfer, water to solvent in data set [3] (CCl4, 25 C) is 6.7 log10 K; in data set [3] (Chlorobenzene, 25 C), 6.67 log10 K; in data set [3] (Chloroform, 25 C), 6.57 log10 K; in data set [3] (Cyclohexanone, 25 C) it was 5.99 log10 K; in data set [3] (Dichloromethane, 25 C), 6.36 log10 K; in data set [3] (Ethanol, 25 C), 5.67 log10 K. The log K of transfer, water to solvent in data set [3] (Hexadecane, 25 C) is 6.33 log10 K; in data set [3] (Hexane, 25 C), 6.66 log10 K; in data set [3] (Methanol, 25 C), 5.38 log10 K; in data set [3] (Perfluoroalkane, 25 C), 5.02 log10 K; in data set [3] (Propan-1-ol, 25 C) it was 5.7 log10 K; in data set [3] (Propan-2-ol, 25 C), 5.78 log10 K. In addition, the log K of transfer, water to solvent in data set [3] (Propionitrile, 25 C) is 5.57 log10 K; in data set [3] (Tetrahydrofuran, 25 C), 6.49 log10 K; in data set [3] (Toluene, 25 C), 6.49 log10 K. Besides, the log K of transfer, gas to solvent is 3.89 log10 K in data set [2] (1,2-Dichloroethane, 25 C); 3 log10 K in data set [2] (Acetonitrile, 25 C); 3.9 log10 K in data set [2] (Butanone, 25 C); 3.63 log10 K in data set [2] (Butyronitrile, 25 C); 4.55 log10 K in data set [2] (CCl4, 25 C); 4.52 log10 K in data set [2] (Chlorobenzene, 25 C). For the same compound, the log K of transfer, gas to solvent is 4.42 log10 K in data set [2] (Chloroform, 25 C); 3.84 log10 K in data set [2] (Cyclohexanone, 25 C); 4.21 log10 K in data set [2] (Dichloromethane, 25 C); 3.52 log10 K in data set [2] (Ethanol, 25 C); 4.18 log10 K in data set [2] (Hexadecane, 25 C); 4.51 log10 K in data set [2] (Hexane, 25 C). For the same compound, the log K of transfer, gas to solvent in data set [2] (Methanol, 25 C) was 3.23 log10 K; in data set [2] (Perfluoroalkane, 25 C) it was 2.87 log10 K; in data set [2] (Propan-1-ol, 25 C) it was 3.55 log10 K; in data set [2] (Propan-2-ol, 25 C), 3.63 log10 K; in data set [2] (Propanone, 25 C) it was 3.66 log10 K; in data set [2] (Propionitrile, 25 C) it was 3.42 log10 K. Besides, the log K of transfer, gas to solvent in data set [2] (Tetrahydrofuran, 25 C) was 4.34 log10 K; in data set [2] (Toluene, 25 C), 4.34 log10 K; in data set [2] (Water, 25 C), -2.15 log10 K.
In the case of `CCC(CC)(CC)CC`, the log K of transfer, water to solvent in data set [1] was 5.19 log10 K; in data set [3] (Hexadecane, 25 C) it was 5.64 log10 K; in data set [3] (Hexane, 25 C), 5.94 log10 K; in data set [3] (Methanol, 25 C), 4.78 log10 K. Besides, the log K of transfer, gas to solvent was 4.01 log10 K in data set [2] (Hexadecane, 25 C); 4.31 log10 K in data set [2] (Hexane, 25 C); 3.15 log10 K in data set [2] (Methanol, 25 C); -1.63 log10 K in data set [2] (Water, 25 C).
In the case of `Cc1cccnc1`, the log K of transfer, water to solvent in data set [1] was 1.2 log10 K; in data set [3] (2-Methylpropan-2-ol, 25 C), 0.77 log10 K; in data set [3] (Butan-1-ol, 25 C) it was 1.2 log10 K; in data set [3] (Chloroform, 25 C) it was 1.89 log10 K; in data set [3] (Cyclohexane, 25 C), 0.27 log10 K; in data set [3] (Hexadecane, 25 C), 0.131 log10 K. Besides, the log K of transfer, water to solvent in data set [3] (Propan-1-ol, 25 C) is 1.15 log10 K. Also, the log K of transfer, gas to solvent in data set [2] (2-Methylpropan-2-ol, 25 C) was 4.27 log10 K; in data set [2] (Butan-1-ol, 25 C) it was 4.7 log10 K; in data set [2] (Chloroform, 25 C), 5.39 log10 K; in data set [2] (Cyclohexane, 25 C), 3.77 log10 K; in data set [2] (Hexadecane, 25 C), 3.63 log10 K; in data set [2] (Propan-1-ol, 25 C), 4.65 log10 K. Further, the log K of transfer, gas to solvent in data set [2] (Water, 25 C) is 3.5 log10 K.
Consider `CCCC(=O)CCC`, for which the log K of transfer, water to solvent was 2.04 log10 K in data set [1]; 1.87 log10 K in data set [3] (Di-n-butyl ether, 25 C); 1.45 log10 K in data set [3] (Hexadecane, 25 C); 1.98 log10 K in data set [3] (Methanol, 25 C). The log K of transfer, gas to solvent in data set [2] (Di-n-butyl ether, 25 C) was 4.12 log10 K; in data set [2] (Hexadecane, 25 C), 3.7 log10 K; in data set [2] (Methanol, 25 C) it was 4.23 log10 K; in data set [2] (Water, 25 C), 2.25 log10 K.
